Data on one compound can be found in patent US9345677B2, “Compositions, methods and kits relating to HER-2 cleavage” (Incyte Corporation, priority 2003, dated 2016).

pIC50: −log10 of the molar value.

This assay concerns the target T1, ADAM10 (Homo sapiens, UniProt O14672).
T1 construct: purchased R&D Systems 936-AD
T1 sequence (O14672 214-748): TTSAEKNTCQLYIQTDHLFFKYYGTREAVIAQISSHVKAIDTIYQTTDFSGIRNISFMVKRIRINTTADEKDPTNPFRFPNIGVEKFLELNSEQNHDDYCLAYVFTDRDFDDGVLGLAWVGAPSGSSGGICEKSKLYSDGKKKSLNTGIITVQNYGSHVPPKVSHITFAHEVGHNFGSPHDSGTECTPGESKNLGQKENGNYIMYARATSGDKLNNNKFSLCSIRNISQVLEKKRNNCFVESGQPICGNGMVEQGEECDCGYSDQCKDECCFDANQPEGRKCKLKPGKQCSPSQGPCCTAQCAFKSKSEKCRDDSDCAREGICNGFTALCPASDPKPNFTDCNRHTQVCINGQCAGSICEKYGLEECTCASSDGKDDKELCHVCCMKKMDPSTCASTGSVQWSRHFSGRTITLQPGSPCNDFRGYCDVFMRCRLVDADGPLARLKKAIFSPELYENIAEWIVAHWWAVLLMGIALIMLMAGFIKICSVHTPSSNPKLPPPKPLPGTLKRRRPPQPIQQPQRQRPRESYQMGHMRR
Description: ADAM10 fluorogenic peptide biochemical assay. As to the method:
5 mM Compound stock was prepared in DMSO. Compound plate was prepared by 2-fold dilution for 11-point curve, with highest concentration of 500 μM. 1 μL of compound in DMSO was transferred from compound plate to the assay plate. Enzyme solution was prepared in assay buffer with a concentration of 100 ng/50 μL. Substrate ((7-methoxycoumarin-4-yl)-acetyl-Pro-Leu-Ala-Gln-Ala-Val-(3-[2,4-dinitrophenyl]-L-2,3-diaminopropionyl)-Arg-Ser-Ser-Ser-Arg-NH2 (SEQ ID NO:48)) solution was prepared in assay buffer with a concentration of 20 μM. 50 μL of enzyme solution was added to the assay plate. The assay plate was incubated for 5 minutes. 50 μL of substrate solution was then added to the assay plate. The plate was protected from light and incubated at 37° C. for 4 hours. The reaction was stopped by adding 10 μL of 500 mM EDTA solution. The plate was read on a plate reader with excitation of 320 nm and emission of 405 nm.
Source of enzymes for biochemical assays: Except for ADAM17 and MT1-MMP, all recombinant human MMPs and ADAMs were obtained from R&D Systems (Minneapolis, Minn.). […]
In general, 5 mM compound stock was prepared in DMSO. […] The plate was read on a plate reader with excitation of 320 nm and emission of 405 nm. Percentage of inhibition was calculated for each concentration and IC50 value was generated from curve fitting. […]

Turning to `Cc1cc([N+](=O)[O-])ccc1N1CCN(C(=O)[C@@H]2[C@@H](C(=O)NO)CC3(CC3)CN2C)CC1` [Compound 5, (6S,7S)-N-hydroxy-5-methyl-6-{[4-(2-methyl-4-nitrophenyl)piperazin-1-yl]-carbonyl}-5-azaspiro[2.5]octane-7-carboxamide], the pIC50 (in general, the IC50 on a negative log10 scale, so that one unit is a factor of ten) is 7.01.
